Counter-ions that a name gives are not always drawn.
Tested on: coronary vasospasm
Assay: Treatment of coronary vasospasm after off pump beating coronary artery bypass grafting (angiography, case reports)
Type: in vivo, patient
Method: To a patient who had been subjected to off pump beating coronary artery bypass grafting (in which a left internal thoracic artery was anastomosed to each of a left anterior descending coronary artery and a diagonal branch), during and after the operation, isosorbide dinitrate (2 to 5 mg/hour), diltiazem (1 to 2 mg/hour), nicorandil (4 to 6 mg/hour), and catecholamines (1 to 2 μg/kg per minute of dopamine and 1 to 2 μg/kg per minute of dobutamine) were continuously intravenously administered. However, after three hours of the operation, severe coronary vasospasm occurred. The coronary vasospasm occurred in a right coronary artery which was not related to the bypass operation. Isosorbide dinitrate (total of 10 mg) was administered into the coronary artery, but it had no effect on the vasospasm. Therefore, fasudil hydrochloride was dissolved in a physiological saline and then the mixture was administered into the right coronary artery for 15 minutes at a rate of 1.5 mg/minute. As a result, the coronary vasospasm was resolved (see FIG. 1). At the occurrence of the vasospasm and after the administration of isosorbide dinitrate, the right coronary artery became thin like a thread due to the vasospasm and peripheral part thereof was not illustrated. However, after the administration of fasudil hydrochloride, the peripheral part was illustrated. […] After that, fasudil hydrochloride was dissolved in the physiological saline and the mixture was continuously administered into the vein for 72 hours (tapered from 10 mg/hour).
To a patient who had been subjected to off pump beating coronary artery bypass grafting (in which a saphenous vein graft was anastomosed from an aorta to a left anterior descending coronary artery), during and after the operation, isosorbide dinitrate (1 to 5 mg/hour), diltiazem (1 to 2 mg/hour), and catecholamines (1 to 2 μg/kg per minute of dopamine, dobutamine, and norepinephrine, respectively) were continuously intravenously administered. However, after five hours of the operation, severe coronary vasospasm occurred. The coronary vasospasm occurred in a right coronary artery and a left circumflex coronary artery which were not related to the bypass operation. Isosorbide dinitrate (total of 10 mg) was administered into the right coronary artery, but it had no effect on the vasospasm. Therefore, fasudil hydrochloride was dissolved in a physiological saline and then the mixture was administered into the right coronary artery for 15 minutes at a rate of 1.5 mg/minute As a result, the coronary vasospasm was resolved (see FIG. 1). At the occurrence of the vasospasm and after the administration of isosorbide dinitrate, the distal part thereof from the portion where the vasospasm had occurred was not illustrated. However, after the administration of fasudil hydrochloride, the peripheral part was illustrated. […] After that, fasudil hydrochloride was dissolved in the physiological saline and the mixture was continuously administered into the vein for 72 hours (tapered from 10 mg/hour).
To a patient who had been subjected to off pump beating coronary artery bypass grafting (in which a right internal thoracic artery was anastomosed to a left anterior descending coronary artery and a left internal thoracic artery was anastomosed to a posterolateral branch of a left circumflex coronary artery), during the operation, isosorbide dinitrate (1 to 3 mg/hour), diltiazem (0.5 to 1 mg/hour), nicorandil (2 to 3 mg/hour), and catecholamines (1 to 5 μg/kg per minute of dopamine, 1 to 2 μg/kg per minute of dobutamine, and 1 to 2 μg/min of norepinephrine) were continuously intravenously administered. However, severe coronary vasospasm occurred immediately thereafter. The vasospasm occurred in the right coronary artery which was not related to the bypass operation and the bypass artery grafts (the right internal thoracic artery and the left internal thoracic artery) while the anastomosis region was left open. […]

O=S(=O)(c1cccc2cnccc12)N1CCCNCC1 [fasudil hydrochloride]
recurrence of coronary vasospasm (Example 1 patient, continuous intravenous administration for 72 hours (tapered from 10 mg/hour)): did not occur again | effect on the coronary vasospasm (Example 1 patient, fasudil hydrochloride in physiological saline into the right coronary artery for 15 minutes at 1.5 mg/minute): resolved | recurrence of coronary vasospasm (Example 2 patient, continuous intravenous administration for 72 hours (tapered from 10 mg/hour)): did not occur again | effect on the coronary vasospasm (Example 2 patient, fasudil hydrochloride in physiological saline into the right coronary artery for 15 minutes at 1.5 mg/minute): resolved | recurrence of coronary vasospasm (Example 3 patient, continuous intravenous administration for 48 hours (tapered from 30 mg/hour)): did not occur again | effect on the coronary vasospasm (Example 3 patient, fasudil hydrochloride in physiological saline into each of the blood vessels for 15 minutes at 1.5 mg/minute): resolved

Source: patent publication US20080242660A1, “Therapeutic Agent for Vasospasm Accompanying Bypass Operation” (ASAHI KASEI PHARMA CORPORATION, priority 2004, published 2008)
